Results published in US7304094B2, “Cyclohexyl sulphones” (Merck Sharp + Dohme, priority 2001, dated 2007).

O=C(C[C@H]1CC[C@@](c2cc(F)ccc2F)(S(=O)(=O)c2ccc(Cl)cc2)CC1)c1ncn[nH]1 [Example 91] showed a melting point of 147 to 154 °C.
